Results as given in patent publication US9029092B2, “Solution phase homogeneous assays” (Beckman Coulter, Inc., priority 2009, dated 2015).
Read-outs that look alike come from different tables or passages of the source.

How the values were obtained:
[1] = test system: PSA; assay: Screening SSIA by homogeneous PSA immunoassay (anti-PSA-AK1 + anti-PSA-HRP); assay type: biochemical, human
Description: This example presents one method used for testing of candidate compounds for functionality as SSIA in assays of the present disclosure. Testing was conducted in a model screening immunoassay of the protein PSA. Tests were run using a 96-well microtiter plate format. A solution containing 30 μL of mouse anti-PSA-AK1 (66 ng), 30 μL of mouse anti-PSA-HRP conjugate (7.8 ng), 36 μL of human female serum, and 24 μL of PSA calibrator were pipetted into each well. The plate was incubated at 37° C. for 10 minutes. A 5 μL aliquot of the test compound (various concentrations) was added to each well. Chemiluminescence was triggered by the addition of 100 μL of a solution of a trigger solution whose composition is listed below. The chemiluminescent flash was integrated for 5 seconds after the addition of the trigger solution using a Luminoskan Asent® plate luminometer, (Thermo Fischer Scientific, Inc., Waltham, Mass.).
It is desirable that the improvement factor be at least 2 (S5/S0≧ about 20-30) and more desirable that improvement factor be at least 5 (S5/S0≧ about 50), yet more desirable that S5/S0 be ≧100 in the present screen.

[2] = test system: biotinylated HRP; assay: Model system for selection of SSIA (AK1/streptavidin BSA microparticles + biotinylated HRP); assay type: biochemical, horseradish; settings: SSIA 100 μM final; for light intensity, BTN-HRP0: Btn-HRP 0 ng/mL; for light intensity, BTN-HRP0 / light intensity, BTN-HRP1 / light intensity, BTN-HRP10 / light intensity, BTN-HRP100 / light intensity, BTN-HRP250: total HRP 500 ng/mL; for S1/S0: Btn-HRP 1 ng/mL vs 0; for light intensity, BTN-HRP1: Btn-HRP 1 ng/mL; for S2/S0: Btn-HRP 10 ng/mL vs 0; for light intensity, BTN-HRP10: Btn-HRP 10 ng/mL; for S3/S0: Btn-HRP 100 ng/mL vs 0; for light intensity, BTN-HRP100: Btn-HRP 100 ng/mL; for S4/S0: Btn-HRP 250 ng/mL vs 0; for light intensity, BTN-HRP250: Btn-HRP 250 ng/mL
Description: The model system uses a microparticle conjugated to BSA (bovine serum albumin) labeled with a […] and acridan ketenedithioacetal chemiluminescent label (AK1) as the chemiluminescent-labeled sbp, and biotinylated HRP as the activator-labeled specific binding pair. In the model system, varying amounts of Btn-HRP is added to the chemiluminescent-labeled specific binding pair at 0, 1, 10, 100 and 250 ng/mL. Additional unlabeled HRP is added to reach a total HRP of concentration of 500 ng/mL in each reaction mixture. The unlabeled HRP in combination with the activator-labeled sbp was provided to the chemiluminescent-labeled sbp microparticles to emulate sample. A compound for assessment as an SSIA was also added. This reaction mixture of the model system is then triggered by addition of trigger solution in a manner of assays of the present disclosure.
To prepare the chemiluminescent-labeled sbp on microparticles, Bovine Serum Albumin (BSA) was biotinylated with 4× molar excess of biotin-LC-sulfoNHS (Pierce Biotechnology Inc., Rockford, Ill., USA). Unbound reactants were removed via desalting or dialysis. The biotin-BSA was then reacted with a 5× molar excess of an NHS ester of acridan ketenedithioacetal AK1 in 20 mM sodium phosphate pH 7.2: DMSO 75:25, v/v) followed by desalting in the same buffer. The dual labeled (biotin and AK1) BSA was then coupled with tosyl activated M280 microparticles (Invitrogen Corporation, Carlsbad, Calif., USA) in a 0.1M borate buffer pH 9.5 at a concentration of about 20 μg of labeled BSA per mg of microparticles for 16-24 h at 40° C. After coupling the microparticles were stripped for 1 h at 40° C. with 0.2 M TRIS base, 2% SDS, pH˜11. The stripping process was repeated one additional time. Microparticles were then suspended in a 0.1% BSA/TRIS buffered saline (BSA/TBS) buffer and streptavidin (SA) was added at approximately 15 μg SA per mg microparticles. Streptavidin was mixed with the microparticles for 45-50 min at room temperature. The microparticles were then washed three times and suspended in the same BSA/TBS.
HRP, (Roche Diagnostics, Indianapolis, Ind., USA) was biotinylated with 4× molar excess of biotin-LC-sulfoNHS (Pierce Biotechnology Inc., Rockford, Ill., USA). Alternatively, 25× molar excess of biotin-PEO4-NHS may be used. Unbound reactants were removed via desalting or dialysis.
Each SSIA compound for assessment was solubilized in Buffer II at a concentration at least 10× of the working strength concentration.
25 μl of 1 mg/ml of dual-labeled (biotin and AK1) BSA M280 particles were mixed with 45 μl of working concentration SSIA in Buffer II. The assay volume brought to 85 μl by adding 15 μl of Buffer II. 15 μl of sample containing Btn-HRP:HRP at different ratios (The amount of biotinylated-HRP varied from 0, 1, 10, 100 and 250 ng/mL) was added. The reaction mixture was incubated for 30 min at 37° C., then 100 μL of trigger solution was added and the light intensity recorded. Total volume of reaction mixture, including trigger solution was 200 μL with a final concentration of 100 μM of SSIA.
The screening tests were performed using a modified DxI® Immunoassay System (Beckman Coulter, Inc. Brea, Calif.) as described above.

[3] = test system: TnI; assay: Assays utilizing various SSIA in TnI assay; assay type: biochemical; settings: for Signal/Noise S1/S0: calibrator S1; for Signal/Noise S2/S0: calibrator S2; for Signal/Noise S3/S0: calibrator S3; for Signal/Noise S4/S0: calibrator S4; for Signal/Noise S5/S0: calibrator S5; for Signal/Noise S6/S0: calibrator S6
Description: In a reaction tube, 400 uL of TnI M6 antibody-HRP conjugate at 0.5 ug/mL in buffered aqueous solution at pH. 8.0 (100 mM Tris, 150 mM NaCl, 0.1 mM EDTA, 0.2% Tween-20 and 1% BSA), 400 uL of AK1˜Dex70/31˜Streptavidin (fraction 1) 2:1 SA/Ab at 2 ug/mL Ab also in buffered aqueous solution at pH 8.0, and 400 uL of calibrator standard solution containing the TnI analyte at a known concentration. One tube was prepared for each calibrator concentration. […] Next, 25 uL of each antioxidant as a concentrated solution of 2 mM, 1 mM or 0.5 mM was pipetted into the plate wells using a repeater pipette. The plates were rotated for 10 seconds to mix and incubated between 5 to 33 minutes. Detection was performed with a SpectraMax L injection plate luminometer.

[4] = test compound final conc. […] ([…]), S5 = 129 ng PSA/mL vs zero PSA
[5] = test compound final conc. 0.244 mM (244 uM)
[6] = test compound final conc. 0.061 mM (61 uM)
[7] = SSIA final concentration 125 uM
[8] = SSIA final concentration 250 uM
[9] = SSIA final concentration 500 uM

## Cc1ccc(O)c(O)c1
[1]; [4]
  S5/S0: 142

## O=C(O)c1ccc(O)c(O)c1
[1]; [4]
  S5/S0: 178

## Oc1cccc(O)c1O
[1]; [4]
  S5/S0: 69

## O=C(O)c1cc(O)c(O)c(O)c1
[1]; [4]
  S5/S0: 135

## COc1ccccc1O
[1]; [4]
  S5/S0: 13

## Cn1ccnc1S
[1]; test compound final conc. 36.7 mM
  S5/S0: 102

## Nc1ncc[nH]1
[1]; test compound final conc. 24.4 mM
  S5/S0: 14

## c1ccc2c(c1)Cc1ccccc1N2
[1]
  S5/S0: 120

## Nc1cc(Cl)ccc1O
[1]; [5]
  S5/S0: 205

## Nc1ccc(O)cc1O
[1]; test compound final conc. 0.030 mM
  S5/S0: 161

## O=S(=O)([O-])CCCN1c2ccccc2Sc2ccccc21.[Na+]
[1]; [5]
  S5/S0: 50

## O=C1C(O)=C(O)C(=O)C(O)=C1O
[1]; [6]
  S5/S0: 51

## O=C1C(O)=C(Cl)C(=O)C(O)=C1Cl
[1]; test compound final conc. 0.031 mM
  S5/S0: 7

## Nc1cccc(Cl)c1O
[1]; [5]
  S5/S0: 300

## O=S(=O)([O-])CCCN1c2ccccc2Cc2ccccc21.[Na+]
[1]; [5]
  S5/S0: 15

## NNC(=O)c1ccccc1O
[1]; [6]
  S5/S0: 23

## O=C1C=C(O)C(=O)C=C1O
[1]; [5]
  S5/S0: 14

## OB(O)c1cc(Cl)ccc1O
[1]; [5]
  S5/S0: 22

## C=CCc1ccc(O)c(OC)c1
[1]; [5]
  S5/S0: 30

## O=S(=O)([O-])CCCOCCCN1c2ccccc2Cc2ccccc21.[Na+]
[1]; [5]
  S5/S0: 6

## Nc1c(O)ccc2ccccc12
[1]; [4]
  S5/S0: 63

## O=C(O)/C=C/c1ccc(O)c(O)c1
[1]; [4]
  S5/S0: 116

## CC1(C)OC(=O)C(O)=C1O
[1]; [4]
  S5/S0: 467

## CC1=C(O)C(=O)C(C)O1 (stereo not shown)
[1]; test compound final conc. 1.25 mM
  S5/S0: 237

## Nc1ccccc1S
[1]; [4]
  S5/S0: 234

## Nc1cc2ccccc2cc1O
[1]; [5]
  S5/S0: 67

## Nc1ccc2ccccc2c1O
[1]; [5]
  S5/S0: 109

## Oc1ccc(O)c(Br)c1
[1]; [4]
  S5/S0: 570

## Nc1cc(C[C@H](N)C(=O)O)ccc1O
[1]; [5]
  S5/S0: 448

## C[C@H]1OC(=O)C(O)=C1O
[1]; [4]
  S5/S0: 423

## O=C1O[C@H]([C@@H](O)CO)C([O-])=C1O.[Na+]
[1]; [4]
  S5/S0: 9.2

## O=C1O[C@H]([C@H](O)CO)C(O)=C1O
[1]; [4]
  S5/S0: 10.3

## Nc1ccccc1O [2-amino phenol, 2-aminophenol]
[2]
  light intensity, BTN-HRP0: 65
  S1/S0: 5.5
  light intensity, BTN-HRP1: 356
  S2/S0: 132.8
  light intensity, BTN-HRP10: 8,632
  S3/S0: 32195.4
  light intensity, BTN-HRP100: 2,092,703
  S4/S0: 61672.1
  light intensity, BTN-HRP250: 4,008,689
  effectiveness as SSIA in the model system: demonstrating utility as SSIA
[3]; [7]
  Signal/Noise S1/S0: 1.4
  Signal/Noise S2/S0: 2.3
  Signal/Noise S3/S0: 7.6
  Signal/Noise S4/S0: 27.2
  Signal/Noise S5/S0: 183.7
  Signal/Noise S6/S0: 1604.7
[3]; [8]
  Signal/Noise S1/S0: 0.9
  Signal/Noise S2/S0: 1.7
  Signal/Noise S3/S0: 4.5
  Signal/Noise S4/S0: 15.4
  Signal/Noise S5/S0: 101.7
  Signal/Noise S6/S0: 739.1
[3]; [9]
  Signal/Noise S1/S0: 1.3
  Signal/Noise S2/S0: 1.8
  Signal/Noise S3/S0: 4.8
  Signal/Noise S4/S0: 10.8
  Signal/Noise S5/S0: 52.5
  Signal/Noise S6/S0: 329.9

## Cc1c(C)c2c(c(C)c1O)CCC(C)(C(=O)O)O2 (stereo not shown) [Trolox ®]
[2]
  light intensity, BTN-HRP0: 173
  S1/S0: 8.4
  light intensity, BTN-HRP1: 1,460
  S2/S0: 215.1
  light intensity, BTN-HRP10: 37,291
  S3/S0: 41832.7
  light intensity, BTN-HRP100: 7,251,008
  S4/S0: 62274.5
  light intensity, BTN-HRP250: 10,794,247
  effectiveness as SSIA in the model system: demonstrating utility as SSIA
[3]; [7]
  Signal/Noise S1/S0: 1.6
  Signal/Noise S2/S0: 3.3
  Signal/Noise S3/S0: 11.5
  Signal/Noise S4/S0: 44.4
  Signal/Noise S5/S0: 302.0
  Signal/Noise S6/S0: 2713.1
[3]; [8]
  Signal/Noise S1/S0: 2.0
  Signal/Noise S2/S0: 3.5
  Signal/Noise S3/S0: 12.8
  Signal/Noise S4/S0: 45.8
  Signal/Noise S5/S0: 295.1
  Signal/Noise S6/S0: 2334.5
[3]; [9]
  Signal/Noise S1/S0: 1.7
  Signal/Noise S2/S0: 2.6
  Signal/Noise S3/S0: 11.3
  Signal/Noise S4/S0: 31.1
  Signal/Noise S5/S0: 192.0
  Signal/Noise S6/S0: 1181.7
